Laboratory results published in ChEMBL document CHEMBL4428102, “Discovery of an Orally Bioavailable Gonadotropin-Releasing Hormone Receptor Antagonist” (J Med Chem, 2016).
Activity calls are given as the source filed them. The rule behind the calls is not given here.

Legend:
[1] = AUC (infinity) in Sprague-Dawley rat at 10 mg/kg, po by mass spectrometry; format: ADME, organism-based; parameters: dose 10 mg/kg, route oral, time infinity; conditions: in vivo
[2] = Half life in castrated cynomolgus monkey at 10 mg/kg, po by mass spectrometry; format: ADME, organism-based, Macaca fascicularis; conditions: male, in vivo
[3] = Tmax in Sprague-Dawley rat at 10 mg/kg, po by mass spectrometry; format: ADME, organism-based; conditions: in vivo
[4] = Half life in Sprague-Dawley rat at 10 mg/kg, po by mass spectrometry; format: ADME, organism-based; conditions: in vivo
[5] = AUC (infinity) in beagle dog at 10 mg/kg, po by mass spectrometry; format: ADME, organism-based, Canis lupus familiaris; parameters: dose 10 mg/kg, time infinity, route oral; conditions: in vivo
Cynomolgus monkey [6] = assay: Reduction in serum LH level in castrated male cynomolgus monkey at 30 mg/kg, po administered as single dose after 12 hrs by RIA method; format: functional; conditions: Macaca fascicularis
[7] = Cmax in Sprague-Dawley rat at 10 mg/kg, po by mass spectrometry; format: ADME, organism-based; parameters: dose 10 mg/kg, route oral; conditions: in vivo
[8] = AUC (infinity) in castrated cynomolgus monkey at 10 mg/kg, po by mass spectrometry; format: ADME, organism-based, Macaca fascicularis; parameters: dose 10 mg/kg, route oral, time infinity; conditions: male, in vivo
[9] = Half life in beagle dog at 10 mg/kg, po by mass spectrometry; format: ADME, organism-based, Canis lupus familiaris; conditions: in vivo
[10] = Cmax in castrated cynomolgus monkey at 10 mg/kg, po by mass spectrometry; format: ADME, organism-based, Macaca fascicularis; parameters: dose 10 mg/kg, route oral; conditions: male, in vivo
[11] = Cmax in castrated male cynomolgus monkey at 30 mg/kg, po administered as single dose; format: ADME, organism-based, Macaca fascicularis; parameters: dose 30 mg/kg, route oral; conditions: in vivo
[12] = Tmax in beagle dog at 10 mg/kg, po by mass spectrometry; format: ADME, organism-based, Canis lupus familiaris; conditions: in vivo
[13] = Oral bioavailability in beagle dog at 10 mg/kg by mass spectrometry; format: ADME, organism-based, Canis lupus familiaris; conditions: in vivo
[14] = Oral bioavailability in Sprague-Dawley rat at 10 mg/kg by mass spectrometry; format: ADME, organism-based; conditions: in vivo
[15] = Tmax in castrated cynomolgus monkey at 10 mg/kg, po by mass spectrometry; format: ADME, organism-based, Macaca fascicularis; conditions: male, in vivo
Cynomolgus monkey [16] = assay: Reduction in serum LH level in castrated male cynomolgus monkey at 30 mg/kg, po administered as single dose after 24 hrs by RIA method; format: functional; conditions: Macaca fascicularis
[17] = Oral bioavailability in castrated cynomolgus monkey at 10 mg/kg by mass spectrometry; format: ADME, organism-based, Macaca fascicularis; conditions: male, in vivo
[18] = Cmax in beagle dog at 10 mg/kg, po by mass spectrometry; format: ADME, organism-based, Canis lupus familiaris; parameters: dose 10 mg/kg, route oral; conditions: in vivo
[19] = AUC in castrated male cynomolgus monkey at 30 mg/kg, po administered as single dose; format: ADME, organism-based, Macaca fascicularis; conditions: in vivo
[20] = molecular target: T1, Gonadotropin-releasing hormone receptor (Homo sapiens, UniProt P30968); assay: Antagonist activity against human GnRH receptor expressed in […] assessed as inhibition of LHRH-induced calcium flux by FLIPR assay; format: functional, cell-based
T1 sequence (P30968 whole entry): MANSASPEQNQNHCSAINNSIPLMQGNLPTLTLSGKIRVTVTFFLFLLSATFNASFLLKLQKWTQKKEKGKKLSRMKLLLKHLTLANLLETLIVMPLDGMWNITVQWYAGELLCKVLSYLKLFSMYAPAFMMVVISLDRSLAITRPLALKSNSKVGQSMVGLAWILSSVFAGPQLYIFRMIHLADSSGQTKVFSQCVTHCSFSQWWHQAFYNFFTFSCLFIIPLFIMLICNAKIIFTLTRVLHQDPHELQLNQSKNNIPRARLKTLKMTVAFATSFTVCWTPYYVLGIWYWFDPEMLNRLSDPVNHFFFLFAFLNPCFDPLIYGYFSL

[21] = molecular target: T1, Gonadotropin-releasing hormone receptor; assay: Displacement of [125I]D-Trp6-LHRH from human GnRH receptor expressed in CHO-K1 cell membranes incubated for 1 hr by competitive binding assay
[22] = molecular target: T2, Gonadotropin-releasing hormone receptor (Macaca mulatta, UniProt Q8SPZ1); assay: Displacement of [125I]D-Trp6-LHRH from monkey GnRH receptor expressed in HEK293 cell membranes incubated for 1 hr by competitive binding assay
T2 sequence (Q8SPZ1 whole entry): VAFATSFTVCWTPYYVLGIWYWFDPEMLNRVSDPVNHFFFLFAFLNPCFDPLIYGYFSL

[23] = molecular target: T3, Gonadotropin-releasing hormone receptor (Rattus norvegicus, UniProt P30969); assay: Antagonist activity against rat GnRH receptor expressed in HEK293 cells co-transfected with pGL4-NFAT promoter AP1-luc assessed as inhibition of 1 nM GnRH-induced NFAT activation pre-incubated for 1 hr before GnRH stimulation and measured after 6 hrs by luciferase reporter gene assay; format: cell-based
T3 sequence (P30969 whole entry): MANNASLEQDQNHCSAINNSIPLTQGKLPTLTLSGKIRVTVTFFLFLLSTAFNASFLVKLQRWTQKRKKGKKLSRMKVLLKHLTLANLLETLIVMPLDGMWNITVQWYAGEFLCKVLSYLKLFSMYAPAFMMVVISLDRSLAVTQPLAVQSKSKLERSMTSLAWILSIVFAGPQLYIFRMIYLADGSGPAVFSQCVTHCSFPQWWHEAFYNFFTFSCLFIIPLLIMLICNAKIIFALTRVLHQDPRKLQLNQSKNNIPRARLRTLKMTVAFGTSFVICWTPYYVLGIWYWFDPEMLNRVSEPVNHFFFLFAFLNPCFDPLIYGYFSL

[24] = molecular target: T2, Gonadotropin-releasing hormone receptor; assay: Antagonist activity against monkey GnRH receptor expressed in HEK293 cells co-transfected with pGL4-NFAT promoter AP1-luc assessed as inhibition of 10 nM GnRH-induced NFAT activation pre-incubated for 1 hr before GnRH stimulation and measured after 6 hrs by luciferase reporter gene assay; format: cell-based
[25] = molecular target: T1, Gonadotropin-releasing hormone receptor; assay: Antagonist activity against human GnRH receptor expressed in HEK293 cells co-transfected with pGL4-NFAT promoter AP1-luc assessed as inhibition of 1 nM GnRH-induced NFAT activation pre-incubated for 1 hr before GnRH stimulation and measured after 6 hrs by luciferase reporter gene assay; format: cell-based
[26] = molecular target: T1, Gonadotropin-releasing hormone receptor; assay: Antagonist activity against human GnRH receptor expressed in HEK293 cells assessed as reduction in ERK1/2 phosphorylation pre-incubated for 5 mins before LHRH stimulation for 5 mins by chemiluminescence based assay; format: cell-based
[27] = molecular target: T1, Gonadotropin-releasing hormone receptor; assay: Antagonist activity against human GnRH receptor expressed in HEK293 cells co-transfected with pGL4-NFAT promoter AP1-luc assessed as inhibition of 20 nM GnRH-induced NFAT activation pre-incubated for 1 hr before GnRH stimulation and measured after 6 hrs by luciferase reporter gene assay; format: cell-based
CYP3A4 = CYP3A4 (Homo sapiens, UniProt P08684); assay: Inhibition of human recombinant CYP3A4 expressed in baculosomes at 10 uM incubated for 30 mins using BOMR substrate by fluorescence based assay; format: ADME; conditions: probe BOMR
[28] = molecular target: T3, Gonadotropin-releasing hormone receptor; assay: Displacement of [125I]D-Trp6-LHRH from rat GnRH receptor expressed in HEK293 cell membranes incubated for 1 hr by competitive binding assay
[29] = Selectivity index, ratio of IC50 for antagonist activity against monkey GnRH receptor expressed in HEK293 cells to IC50 for antagonist activity against human GnRH receptor expressed in HEK293 cells; format: cell-based
Cynomolgus monkey [30] = assay: Reduction in serum LH level in castrated male cynomolgus monkey at 30 mg/kg, po administered as single dose after 12 to 24 hrs by RIA method; format: functional, organism-based; conditions: Macaca fascicularis
[31] = Selectivity index, ratio of IC50 for antagonist activity against rat GnRH receptor expressed in HEK293 cells to IC50 for antagonist activity against human GnRH receptor expressed in HEK293 cells; format: cell-based

Sequence of CYP3A4 (P08684 whole entry): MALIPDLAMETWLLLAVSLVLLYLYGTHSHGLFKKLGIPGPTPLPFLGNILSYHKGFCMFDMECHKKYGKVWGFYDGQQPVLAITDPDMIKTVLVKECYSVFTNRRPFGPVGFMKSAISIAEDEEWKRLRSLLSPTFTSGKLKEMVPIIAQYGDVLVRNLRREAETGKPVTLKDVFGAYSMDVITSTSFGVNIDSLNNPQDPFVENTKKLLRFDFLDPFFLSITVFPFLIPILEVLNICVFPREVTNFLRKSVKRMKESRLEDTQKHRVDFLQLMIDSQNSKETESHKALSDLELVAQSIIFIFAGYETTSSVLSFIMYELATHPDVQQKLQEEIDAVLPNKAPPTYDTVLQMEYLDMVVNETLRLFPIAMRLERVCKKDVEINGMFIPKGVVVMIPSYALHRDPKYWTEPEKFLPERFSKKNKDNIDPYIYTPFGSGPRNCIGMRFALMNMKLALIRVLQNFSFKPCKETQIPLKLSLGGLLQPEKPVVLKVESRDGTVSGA

Cc1c(N2CCN(Cc3ccc(C(F)(F)F)o3)CC2)c(=O)n(C[C@H](NCCCC(=O)O)c2ccccc2)c(=O)n1Cc1c(F)cccc1C(F)(F)F.Cl
AUC(0-inf) [1]: 1500 ng·h/mL
half-life [2]: 3.5 h
Tmax [3]: 1.6 h
half-life [4]: 1.9 h
AUC(0-inf) [5]: 9600 ng·h/mL
inhibition in vivo at 30 mg/kg (Cynomolgus monkey [6]): 84%
Cmax [7]: 500 ng/mL
AUC(0-inf) [8]: 1300 ng·h/mL
half-life [9]: 1.7 h
Cmax [10]: 300 ng/mL
Cmax [11]: 5500 ng/mL
Tmax [12]: 1.3 h
bioavailability [13]: 52.6%
bioavailability [14]: 15.6%
Tmax [15]: 1.7 h
inhibition in vivo at 30 mg/kg (Cynomolgus monkey [16]): 76%
bioavailability [17]: 13.2%
Cmax [18]: 2700 ng/mL
AUC [19]: 37000 ng·h/mL

Cc1c(N2CCN(Cc3ccc(C(F)(F)F)o3)CC2)c(=O)n(C[C@H](NCCCC(=O)O)c2ccccc2)c(=O)n1Cc1c(F)cccc1C(F)(F)F [listing 1 of 2 here]
IC50 [20]: 0.76 nM
IC50 [21]: 0.44 to 0.46 nM
IC50 [22]: 3.7 nM
IC50 [23]: 279 nM
IC50 [24]: 13.2 nM
IC50 [25]: 6.32 nM
IC50 [26]: 2.9 nM
IC50 [27]: 13 nM
inhibition at 0.5 h, 10 µM (CYP3A4): 21%
IC50 [28]: 520 nM

Cc1c(N2CCN(Cc3cccc([N+](=O)[O-])c3)CC2)c(=O)n(C[C@H](N)c2ccccc2)c(=O)n1Cc1c(F)cccc1C(F)(F)F
IC50 [21]: 0.45 nM
IC50 [27]: 102 to 155 nM
inhibition at 0.5 h, 10 µM (CYP3A4): 89%

Cc1c(N2CCN(Cc3ccc(C(F)(F)F)o3)CC2)c(=O)n(C[C@H](NCCCC(=O)O)c2ccccc2)c(=O)n1Cc1c(F)cccc1C(F)(F)F [listing 2 of 2 here]
Ratio IC50 [29]: 2
inhibition (Cynomolgus monkey [30]): Active
Ratio IC50 [31]: 44

Cc1c(N2CCN(Cc3ccc(C(F)(F)F)o3)CC2)c(=O)n(C[C@H](NCCCS(=O)(=O)O)c2ccccc2)c(=O)n1Cc1c(F)cccc1C(F)(F)F
IC50 [21]: 1.1 nM
IC50 [27]: 122 nM
inhibition at 0.5 h, 10 µM (CYP3A4): 45%

Cc1c(N2CCN(Cc3cccc([N+](=O)[O-])c3)CC2)c(=O)n(C[C@H](N)c2ccccc2OCCCC(=O)O)c(=O)n1Cc1c(F)cccc1C(F)(F)F
IC50 [21]: 0.14 nM
IC50 [27]: 26.9 nM
inhibition at 0.5 h, 10 µM (CYP3A4): 57%

Cc1c(N2CCN(Cc3cccc([N+](=O)[O-])c3)CC2)c(=O)n(C[C@H](N)c2ccccc2OCC(=O)O)c(=O)n1Cc1c(F)cccc1C(F)(F)F
IC50 [21]: 0.23 nM
IC50 [27]: 27.7 nM
inhibition at 0.5 h, 10 µM (CYP3A4): 30%

Cc1c(N2CCN(Cc3ccc(C(F)(F)F)o3)CC2)c(=O)n(C[C@H](N)c2ccccc2)c(=O)n1Cc1c(F)cccc1C(F)(F)F
IC50 [21]: 0.95 nM
IC50 [27]: 12.6 nM
inhibition at 0.5 h, 10 µM (CYP3A4): 96%

Cc1c(N2CCN(Cc3cccc(C(=O)NCC(=O)O)c3)CC2)c(=O)n(C[C@H](N)c2ccccc2)c(=O)n1Cc1c(F)cccc1C(F)(F)F
IC50 [21]: > 10 nM
IC50 [27]: > 300 nM
inhibition at 0.5 h, 10 µM (CYP3A4): 74%

Cc1c(N2CCN(Cc3cccc([N+](=O)[O-])c3)CC2)c(=O)n(C[C@H](NCCCC(=O)O)c2ccccc2)c(=O)n1Cc1c(F)cccc1C(F)(F)F
IC50 [21]: 1.42 nM
IC50 [27]: 60 nM
inhibition at 0.5 h, 10 µM (CYP3A4): 17%

CCOP(=O)(O)CCCN[C@@H](Cn1c(=O)c(N2CCN(Cc3ccc(C(F)(F)F)o3)CC2)c(C)n(Cc2c(F)cccc2C(F)(F)F)c1=O)c1ccccc1
IC50 [21]: 1.8 nM
IC50 [27]: 184 nM
inhibition at 0.5 h, 10 µM (CYP3A4): 45%
